Results reported in patent publication US12545639B2, “3-substituted phenylamidine compounds, preparation and use thereof” (PI INDUSTRIES LTD., priority 2019, dated 2026).

Legend:
[1] = tested on: Botrytis cinerea; assay: Botrytis cinerea (gray mold) in vitro test, radial growth on potato dextrose agar; type: cell-based; conditions: 168 h, 300 ppm in potato dextrose agar, 22° C., 90% relative humidity, seven days, read-out: control compared to the untreated check (radial growth)
[2] = tested on: Rhizoctonia solani; assay: Rhizoctonia solani (rice sheath blight/potato black scurf) in vitro test, radial growth on potato dextrose agar; type: cell-based; conditions: 168 h, 300 ppm in potato dextrose agar, 25° C., 60% relative humidity, seven days, read-out: control compared to the untreated check (radial growth)
[3] = tested on: Colletotrichum capsici; assay: Colletotrichum capsici (anthracnose) in vitro test, radial growth on potato dextrose agar; type: cell-based; conditions: Colletotrichum truncatum, 168 h; 300 ppm in potato dextrose agar; 25° C., 60% relative humidity, seven days; read-out: control compared to the untreated check (radial growth)
[4] = tested on: Phakopsora pachyrhizi; assay: Phakopsora pachyrhizi test in soybean, preventive, in vivo on plants; conditions: in Glycine max, read-out: Efficacy (% control), disease severity compared to the untreated check
[5] = tested on: Pyricularia oryzae; assay: microbe, parasite or virus in culture; type: cell-based; conditions: 168 h, read-out: control compared to the untreated check (radial growth)
[6] = tested on: Alternaria solani; assay: Alternaria solani (early blight of tomato/potato) in vitro test, radial growth on potato dextrose agar; type: cell-based; conditions: 168 h, 300 ppm in potato dextrose agar, 25° C., 60% relative humidity, seven days, read-out: control compared to the untreated check (radial growth)
[7] = tested on: Septoria lycopersici/Corynespora cassicola (CORYCA); assay: Septoria lycopersici/Corynespora cassicola (CORYCA) (leaf spot of tomato) in vitro test, radial growth on potato dextrose agar; type: cell-based; conditions: 168 h, 300 ppm in potato dextrose agar, 25° C., 70% relative humidity, seven days, read-out: control compared to the untreated check (radial growth)

CCN(C)C=Nc1cc(C)cc(Cc2ccc(OC)cc2)c1Cl [Compound 150, N′-(2-chloro-3-(4-methoxybenzyl)-5-methylphenyl)-N-ethyl-N-methylformimidamide]
≥ 70%: inhibition of growth at 300 ppm [1] | inhibition of growth at 300 ppm [2] | inhibition of growth at 300 ppm [3] | pest or weed control at 500 ppm [4] | inhibition of growth at 300 ppm [5] | inhibition of growth at 300 ppm [6]

CCN(C)C=Nc1cc(Cl)cc(Cc2cccc(Cl)c2)c1C [Compound 101, N′-(5-chloro-3-(3-chlorobenzyl)-2-methylphenyl)-N-ethyl-N-methylformimidamide]
≥ 70%: inhibition of growth at 300 ppm [7] | inhibition of growth at 300 ppm [3] | pest or weed control at 500 ppm [4] | inhibition of growth at 300 ppm [5] | inhibition of growth at 300 ppm [6]

CCN(C)C=Nc1cc(C)cc(Nc2cccc(C)c2)c1Cl [Compound 36, N′-(2-chloro-5-methyl-3-(m-tolylamino)phenyl)-N-ethyl-N-methylformimidamide]
≥ 70%: inhibition of growth at 300 ppm [7] | inhibition of growth at 300 ppm [3] | pest or weed control at 500 ppm [4] | inhibition of growth at 300 ppm [5] | inhibition of growth at 300 ppm [6]

CCN(C)C=Nc1cc(C)cc(Cc2ccccc2C(F)(F)F)c1Cl [Compound 21, N′-(2-chloro-5-methyl-3-(2-(trifluoromethyl)benzyl)phenyl)-N-ethyl-N-methylformimidamide]
≥ 70%: inhibition of growth at 300 ppm [1] | inhibition of growth at 300 ppm [2] | inhibition of growth at 300 ppm [3] | pest or weed control at 500 ppm [4] | inhibition of growth at 300 ppm [5] | inhibition of growth at 300 ppm [6]

CCN(C)C=Nc1cc(F)cc(Nc2cc(C)cc(F)c2)c1C [Compound 114, N-ethyl-N′-(5-fluoro-3-((3-fluoro-5-methylphenyl)amino)-2-methylphenyl)-N-methylformimidamide]
≥ 70%: inhibition of growth at 300 ppm [7] | inhibition of growth at 300 ppm [3] | pest or weed control at 500 ppm [4] | inhibition of growth at 300 ppm [5] | inhibition of growth at 300 ppm [6]

CCN(C)C=Nc1cc(Cl)cc(NCc2cccc(Cl)c2)c1C [Compound 183, N′-(5-chloro-3-((3-chlorobenzyl)amino)-2-methylphenyl)-N-ethyl-N-methylformimidamide]
≥ 70%: inhibition of growth at 300 ppm [1] | inhibition of growth at 300 ppm [2] | inhibition of growth at 300 ppm [3] | pest or weed control at 500 ppm [4] | inhibition of growth at 300 ppm [5] | inhibition of growth at 300 ppm [6]

CCN(C)C=Nc1cc(C)cc(Cc2ccc(F)cc2C)c1Cl [Compound 65, N′-(2-chloro-3-(4-fluoro-2-methylbenzyl)-5-methylphenyl)-N-ethyl-N-methylformimidamide]
≥ 70%: inhibition of growth at 300 ppm [1] | inhibition of growth at 300 ppm [2] | inhibition of growth at 300 ppm [3] | pest or weed control at 500 ppm [4] | inhibition of growth at 300 ppm [5] | inhibition of growth at 300 ppm [6]

CCN(C)C=Nc1cc(C)cc(Cc2ccccc2Br)c1Cl [Compound 45, N′-(3-(2-bromobenzyl)-2-chloro-5-methylphenyl)-N-ethyl-N-methylformimidamide]
≥ 70%: inhibition of growth at 300 ppm [1] | inhibition of growth at 300 ppm [2] | inhibition of growth at 300 ppm [3] | pest or weed control at 500 ppm [4] | inhibition of growth at 300 ppm [5] | inhibition of growth at 300 ppm [6]

CCN(C)C=Nc1cc(F)cc(N(C)c2cc(Cl)ccc2C)c1C [Compound 98, N′-(3-((5-chloro-2-methylphenyl)(methyl)amino)-5-fluoro-2-methylphenyl)-N-ethyl-N-methylformimidamide]
≥ 70%: inhibition of growth at 300 ppm [1] | inhibition of growth at 300 ppm [2] | inhibition of growth at 300 ppm [3] | pest or weed control at 500 ppm [4] | inhibition of growth at 300 ppm [5] | inhibition of growth at 300 ppm [6]

CCN(C)C=Nc1cc(F)cc(N(C)c2cccc(C)c2F)c1C [Compound 152, N-ethyl-N′-(5-fluoro-3-((2-fluoro-3-methylphenyl)(methyl)amino)-2-methylphenyl)-N-methylformimidamide]
≥ 70%: inhibition of growth at 300 ppm [1] | inhibition of growth at 300 ppm [2] | inhibition of growth at 300 ppm [3] | pest or weed control at 500 ppm [4] | inhibition of growth at 300 ppm [5] | inhibition of growth at 300 ppm [6]

CCc1cccc(Nc2cc(C)cc(N=CN(C)CC)c2Cl)n1 [Compound 226, N′-(2-chloro-3-((6-ethylpyridin-2-yl)amino)-5-methylphenyl)-N-ethyl-N-methylformimidamide]
≥ 70%: inhibition of growth at 300 ppm [7] | inhibition of growth at 300 ppm [3] | inhibition of growth at 300 ppm [6]

CCN(C)C=Nc1cc(C)cc(Cc2ccc(Br)cc2)c1Cl [Compound 93, N′-(3-(4-bromobenzyl)-2-chloro-5-methylphenyl)-N-ethyl-N-methylformimidamide]
≥ 70%: inhibition of growth at 300 ppm [1] | inhibition of growth at 300 ppm [2] | inhibition of growth at 300 ppm [3] | pest or weed control at 500 ppm [4] | inhibition of growth at 300 ppm [5] | inhibition of growth at 300 ppm [6]

CCN(C)C=Nc1cc(C)cc(Nc2cc(C)ccc2Cl)c1Cl [Compound 115, N′-(2-chloro-3-((2-chloro-5-methylphenyl)amino)-5-methylphenyl)-N-ethyl-N-methylformimidamide]
≥ 70%: inhibition of growth at 300 ppm [7] | inhibition of growth at 300 ppm [3] | pest or weed control at 500 ppm [4] | inhibition of growth at 300 ppm [5] | inhibition of growth at 300 ppm [6]

CCN(C)C=Nc1cc(F)cc(Cc2cc(F)ccc2Br)c1C [Compound 233, N′-(3-(2-bromo-5-fluorobenzyl)-5-fluoro-2-methylphenyl)-N-ethyl-N-methylformimidamide]
≥ 70%: inhibition of growth at 300 ppm [1] | inhibition of growth at 300 ppm [2] | inhibition of growth at 300 ppm [3] | pest or weed control at 500 ppm [4] | inhibition of growth at 300 ppm [5] | inhibition of growth at 300 ppm [6]

CCN(C)C=Nc1cc(Cl)cc(Cc2ccccc2Br)c1C [Compound 90, N′-(3-(2-bromobenzyl)-5-chloro-2-methylphenyl)-N-ethyl-N-methylformimidamide]
≥ 70%: inhibition of growth at 300 ppm [1] | inhibition of growth at 300 ppm [2] | inhibition of growth at 300 ppm [3] | pest or weed control at 500 ppm [4] | inhibition of growth at 300 ppm [5] | inhibition of growth at 300 ppm [6]

CCN(C)C=Nc1cc(C)cc(Cc2ccc(F)c(C)c2)c1Cl [Compound 68, N′-(2-chloro-3-(4-fluoro-3-methylbenzyl)-5-methylphenyl)-N-ethyl-N-methylformimidamide]
≥ 70%: inhibition of growth at 300 ppm [1] | inhibition of growth at 300 ppm [2] | inhibition of growth at 300 ppm [3] | pest or weed control at 500 ppm [4] | inhibition of growth at 300 ppm [5] | inhibition of growth at 300 ppm [6]

CCN(C)C=Nc1cc(Cl)cc(Cc2cccc(F)c2)c1C [Compound 102, N′-(5-chloro-3-(3-fluorobenzyl)-2-methylphenyl)-N-ethyl-N-methylformimidamide]
≥ 70%: inhibition of growth at 300 ppm [1] | inhibition of growth at 300 ppm [2] | inhibition of growth at 300 ppm [3] | pest or weed control at 500 ppm [4] | inhibition of growth at 300 ppm [5] | inhibition of growth at 300 ppm [6]

CCN(C)C=Nc1cc(C)cc(Nc2cccc(Cl)c2)c1Cl [Compound 34, N′-(2-chloro-3-((3-chlorophenyl)amino)-5-methylphenyl)-N-ethyl-N-methylformimidamide]
≥ 70%: inhibition of growth at 300 ppm [1] | inhibition of growth at 300 ppm [2] | inhibition of growth at 300 ppm [3] | pest or weed control at 500 ppm [4] | inhibition of growth at 300 ppm [5] | inhibition of growth at 300 ppm [6]

CCN(C)C=Nc1cc(C)cc(Cc2cc(F)c(OC)c(F)c2)c1Cl [Compound 71, N′-(2-chloro-3-(3,5-difluoro-4-methoxybenzyl)-5-methylphenyl)-N-ethyl-N-methylformimidamide]
≥ 70%: inhibition of growth at 300 ppm [1] | inhibition of growth at 300 ppm [2] | inhibition of growth at 300 ppm [3] | pest or weed control at 500 ppm [4] | inhibition of growth at 300 ppm [5] | inhibition of growth at 300 ppm [6]
